Experimental data from patent US7705016B2, “Regulation of food intake by modulation of long-chain fatty acyl-CoA levels in the hypothalamus” (Albert Einstein College of Medicine of Yeshiva University, priority 2003, dated 2010).

Target: T1, hypothalamic CPT1 (Rattus norvegicus, UniProt P32198)
T1 sequence (P32198 1-773): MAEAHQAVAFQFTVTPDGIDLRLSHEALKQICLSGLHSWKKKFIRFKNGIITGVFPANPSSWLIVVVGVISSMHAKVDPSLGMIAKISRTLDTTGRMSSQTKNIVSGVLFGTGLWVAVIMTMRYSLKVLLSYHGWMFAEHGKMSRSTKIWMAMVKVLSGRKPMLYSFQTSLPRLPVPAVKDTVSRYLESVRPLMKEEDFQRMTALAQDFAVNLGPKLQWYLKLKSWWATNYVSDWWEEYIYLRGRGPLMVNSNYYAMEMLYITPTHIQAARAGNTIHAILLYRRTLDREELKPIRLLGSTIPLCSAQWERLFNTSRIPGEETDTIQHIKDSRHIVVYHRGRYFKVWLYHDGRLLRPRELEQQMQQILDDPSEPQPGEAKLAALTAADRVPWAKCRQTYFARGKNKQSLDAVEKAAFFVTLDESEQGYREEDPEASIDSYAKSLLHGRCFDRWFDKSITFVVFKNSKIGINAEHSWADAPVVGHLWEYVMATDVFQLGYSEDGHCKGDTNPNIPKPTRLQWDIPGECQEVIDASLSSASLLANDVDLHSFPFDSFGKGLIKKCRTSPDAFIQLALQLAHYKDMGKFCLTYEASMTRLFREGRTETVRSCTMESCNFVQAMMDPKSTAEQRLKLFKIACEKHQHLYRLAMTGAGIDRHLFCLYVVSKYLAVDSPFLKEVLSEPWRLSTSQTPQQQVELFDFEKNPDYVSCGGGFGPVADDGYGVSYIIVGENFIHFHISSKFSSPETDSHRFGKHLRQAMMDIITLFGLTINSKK
Assay: ICV infusion with pancreatic-insulin clamp, glucose kinetics (Example 1)
Assay type: in vivo
Parameters: CPT1 activity was measured in the particulate fraction of protein extracts from animals treated with ICV control injections; from tissue; host or cells: hypothalamus (arcuate nucleus) of male Sprague-Dawley rats, in vivo or ex vivo; Insulin (iU/ml): unit not given here
Conditions: for Food Intake: measured prior to acute ICV infusion, except CPT1L-Ribo group (3 days after ICV); for decrease in glucose production (GP): basal and equal insulin levels (~20 μU/ml), ICV; for glucose production (GP) during pancreatic clamp vs ICV vehicle controls: ~basal insulin concentrations, p<0.01
Procedure: Hypothalamic inhibition of CPT1 inhibits glucose production. Experiments were also designed to examine the effect of central inhibition of CPT-1 on whole body insulin action (FIG. 4a,b). Insulin action was assessed by a combination of ICV infusions with systemic pancreatic-insulin clamp studies (FIG. 4b). In these studies, the daily food intake was matched in the rats receiving ICV vector and ICV CPT1L-Ribo (Table 1). All rats also received an intra-arterial infusion of [3-^3H]-glucose for the last 4 hr of ICV infusion and a pancreatic/insulin clamp (insulin 1 mU/kg.min; somatostatin 3 μg/kg/min) during the last 2 hr of the study (Obici et al., 2002a; Obici et al., 2001). As expected in the presence of ˜basal circulating insulin levels (clamp procedure; Table 1), the rate of glucose infusion (GIR) required to maintain euglycemia was marginal in ICV control studies (vector-ST1340- or vehicle-infused animals; ˜0.8 mg/kg/min). By contrast, following ICV infusion of inhibitors of CPT-1 expression or activity glucose had to be infused at the rate of ˜5 mg/kg/min in order to prevent hypoglycemia. Thus, central inhibition of CPT-1 activity in the presence of fixed and basal insulin concentrations stimulates insulin action on glucose homeostasis.
Animal preparation for in vivo experiments. We studied ninety-three 10-week old male Sprague-Dawley rats (Charles River Breeding Laboratories, Wilmington, Mass.). Rats were housed in individual cages and subjected to a standard light-dark cycle. Three weeks prior to the in vivo studies, we placed a chronic catheter in the third cerebral ventricle by stereotaxic surgery (Obici et al., 2002a; Obici et al., 2001; Liu et al., 1998). One week before the pancreatic-insulin clamp protocols, we placed additional catheters in the right internal jugular and left carotid artery (Obici et al., 2001; Liu et al., 1998). All ICV solutions were dissolved in artificial cerebral spinal fluid (aCSF). Food intake was monitored daily.
Measurements of in vivo glucose kinetics and pancreatic-insulin clamp procedure. The infusion studies lasted a total of 360 min (FIG. 3a). Briefly, at t=0 min a primed-continuous ICV infusion of either CPT1 inhibitors or control solution was initiated and maintained for the remainder of the study. 2-tetradecylglydate (TDGA, a gift from Dr. Manuel Guzman) was dissolved in DMSO, diluted into aCSF (Harvard Apparatus) and infused ICV at a rate of 50 pmoles/hr. […] Prior to the pancreatic-insulin clamp studies, rats receiving ICV injection of either CPT1L-Ribo or vector control three days prior to the clamp procedure were randomized into two pair-fed experimental groups. A primed-continuous infusion of HPLC-purified [3-^3H]-glucose (New England Nuclear, Boston, Mass.; 40 μCi bolus, 0.4 μCi/min) was started at t=120 min and continued for the duration of the study (Obici et al., 2002a; Obici et al., 2001; Liu et al., 1998). Finally, a pancreatic-insulin clamp (Obici et al., 2002a; Obici et al., 2001; Liu et al., 1998) was initiated at t=240 min and lasted for 2 hours. This procedure involved the infusion of somatostatin (3 μg/kg/min), insulin (1 mU/kg/min), and glucose as needed to prevent hypoglycemia, or antibodies against C peptide (Linco) and Melanocortin Receptor type 2 (Chemicon). The rate of insulin infusion was designed to replace normal basal levels in postabsorptive rats.
Radioactivity of [^3H]glucose in plasma was measured from supernatants of Ba(OH)2 and ZnSO4 precipitates after evaporation to dryness for the removal of tritiated water (Somogyi pellet). The specific activity of tritiated water in plasma (Somogyi filtrate) was determined from the total counts of the protein-free supernatant before and after evaporation to dryness. Under steady state conditions for plasma glucose concentration, the rate of glucose disappearance (Rd) equals the rate of glucose appearance (Ra). […]

## CCCCCCCCCCCCCCNC(=O)N[C@H](CC(=O)[O-])C[N+](C)(C)C [ST1326, (R)-N-(tetradecylcarbamoyl)-aminocarnitine]
Basal
  Body wt.: 302 ± 4 g
  FFA: 0.5 ± 0.1 mM
  Glucose: 8.1 ± 0.7 mM
  Insulin: 1.4 ± 0.2 ng/mL
  Leptin: 0.9 ± 0.1 ng/mL
  Food Intake: 21 ± 2 g
Clamp, steady-state
  FFA: 0.4 ± 0.1 mM
  Glucose: 8.1 ± 0.8 mM
  Insulin (iU/ml): 21 ± 2
  decrease in glucose production (GP): 44±7%
  glucose production (GP) during pancreatic clamp vs ICV vehicle controls: markedly inhibited GP

## CPT1L-Ribo: plasmid (pTarget, CMV promoter) expressing a hammerhead ribozyme that specifically cleaves rat CPT1L mRNA, complexed to PEI for ICV injection (DNA CUGUACCAAAGAGCUGUAGAGUCCGUGAGGACGAAACGCCGCUCACAAUG)
Basal
  Body wt.: 277 ± 8 g
  FFA: 0.5 ± 0.1 mM
  Glucose: 8.2 ± 0.6 mM
  Food Intake: 14 ± 2 g
Clamp, steady-state
  FFA: 0.4 ± 0.1 mM
  Glucose: 8.1 ± 0.5 mM
  Insulin (iU/ml): 21 ± 2
  decrease in glucose production (GP): 30±3%
  glucose production (GP) during pancreatic clamp vs ICV vehicle controls: markedly inhibited GP
